The assay addresses T1, human GLP1R (Homo sapiens, UniProt P43220).
T1 construct: expressed in transfected cells; host or cells: CHO cells (ATCC), transient transfection with pCMV-human GLP1R
Description: Human GLP-1 receptor transfected cell assay (MRE/CRE-luciferase reporter gene, agonist activity). It counts as cell-based. The note with it: 6 h. In outline:
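CHO cells transiently co-transfected with human GLP1R and MRE/CRE-driven luciferase reporter plasmids. Compound or GLP-1 (7-36 amide) standard dilution series added for 6 h at 37 °C, 5% CO2. Agonist activity read as Bright-Glo luciferase luminescence.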

T1 sequence (P43220 24-463): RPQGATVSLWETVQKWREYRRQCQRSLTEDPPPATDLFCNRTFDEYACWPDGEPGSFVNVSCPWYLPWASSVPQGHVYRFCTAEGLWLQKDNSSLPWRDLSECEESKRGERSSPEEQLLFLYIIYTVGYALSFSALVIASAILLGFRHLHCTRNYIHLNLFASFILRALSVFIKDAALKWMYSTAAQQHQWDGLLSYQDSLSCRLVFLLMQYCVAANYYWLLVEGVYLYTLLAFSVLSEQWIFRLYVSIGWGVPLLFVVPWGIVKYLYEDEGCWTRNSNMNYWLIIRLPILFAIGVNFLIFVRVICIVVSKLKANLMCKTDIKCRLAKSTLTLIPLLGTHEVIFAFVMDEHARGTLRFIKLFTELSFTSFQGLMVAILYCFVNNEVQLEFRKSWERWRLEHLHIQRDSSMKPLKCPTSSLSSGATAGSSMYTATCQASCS

As for `CC(C)(C)OC(=O)Nc1ccc(-c2nc(-c3ccc(CC(NC(=O)Nc4ccc(-c5ccccc5F)cn4)C(=O)O)cc3F)no2)cc1` (centres unmarked) [Compound 13T], where the note is “conc. 10 μM, percentage of the activity of the control, read-out: Agonist Activity”, the activation at 10 µM is > 60%. For `CC(C)(C)OC(=O)Nc1ccc(-c2nc(-c3ccc(CC(NC(=O)c4cccc(-c5ccc(C#N)cc5)c4F)C(=O)O)cc3F)no2)cc1` (centres unmarked) [Compound 2J], under “concentration 3.16 μM, read-out: Activity (agonist), percentage of the activity of the control”, the activation at 3.16 µM was > 60%.

Values taken from US8748412B2, “Phenylalanine derivatives and their use as non-peptide GLP-1 receptor modulators” (Argusina Bioscience Inc., priority 2011, dated 2014).
